Source: PubChem BioAssay AID624359 (Broad Institute, 2012)
Inconclusive results are not listed. Active and inactive are the calls of the source.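 How the source made its calls: active means fitted curve reaches 35% inhibition at a concentration up to twice the top valid dose; inconclusive means no clear call, values can overlap the other calls; inactive means the rest, including signal moving the opposite way.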

Test system: not listed separately
Experiment: LMP1-induced NF-kB luciferase signal inhibition – cell-based, EBV LMP1, dry powder, dose response (AID 624359)
Conditions: HEK293 LMP1 TES2 NF-kB luciferase reporter, 16 h; at 12 µM (top of the series)

For C/C(=N\NC(=S)N1CCN(C2CCCCCC2)CC1)c1ccccn1, which activity change, negative = inhibition is on record?
The activity change, negative = inhibition was 33.5% (inactive).

Same assay, conditions: HEK293 LMP1 TES2 NF-kB luciferase reporter, 16 h; at 15 µM (top of the series)

Which activity change, negative = inhibition does the source give for C=C1C[C@]23C[C@@]1(O)CC[C@H]2[C@@]12C=C[C@H](O)[C@@](C)(C(=O)O1)[C@H]2[C@@H]3C(=O)O here?
Its activity change, negative = inhibition is -4.73% (inactive).

Same assay, conditions: HEK293 LMP1 TES2 NF-kB luciferase reporter, 16 h; at 26 µM (top of the series)

With COc1ccc(-c2csc3ncnc(NCCN4CCOCC4)c23)cc1 as the compound, how does the activity change, negative = inhibition read?
The activity change, negative = inhibition was 9.04% (inactive).

Which activity change, negative = inhibition does the source give for COc1ccc2nc(Nc3nc(C)c(CCC(C)C)c(=O)[nH]3)nc(C)c2c1 here?
Its activity change, negative = inhibition is 42.5% (inactive).

Which activity change, negative = inhibition does the source give for O=C(CSc1nnc2c3ccccc3n(Cc3ccccc3)c2n1)NCc1ccco1 here?
Its activity change, negative = inhibition is 12.9% (inactive).

With Cc1ccc(S(=O)(=O)NC(CC(C)C)C(=O)NCC(c2ccco2)N2CCCCC2)cc1 (stereo not given) as the compound, how does the activity change, negative = inhibition read?
The activity change, negative = inhibition was -1.92% (inactive).

Which activity change, negative = inhibition does the source give for CC(=O)Nc1nc(C)c(-c2csc(Nc3ccc(O)cc3)n2)s1 here?
Its activity change, negative = inhibition is 83.3% (inactive).

With COc1ccc(C(=O)Nc2ccc3[nH]ccc3c2)cc1 as the compound, how does the activity change, negative = inhibition read?
Its activity change, negative = inhibition is 13.6% (inactive).

For C/C(=N\NC(=S)Nc1ccccc1Cl)c1ccccn1, which activity change, negative = inhibition is on record?
Its activity change, negative = inhibition is 51.4% (inactive).

With Oc1cccc(C(Nc2nccs2)c2ccc3cccnc3c2O)c1 (stereo not given) as the compound, how does the activity change, negative = inhibition read?
Its activity change, negative = inhibition is 23.7% (inactive).

With CNC[C@@H]1Oc2ccc(NS(=O)(=O)c3cn(C)cn3)cc2CC(=O)N([C@H](C)CO)C[C@@H]1C as the compound, how does the activity change, negative = inhibition read?
The activity change, negative = inhibition was 7.33% (inactive).

For COc1ccccc1NC(=S)N/N=C(\C)c1ccccn1, which activity change, negative = inhibition is on record?
The activity change, negative = inhibition was -20.4% (inactive).

With CSc1nc(-c2ccc(C)cc2)nc(C(Cl)Cl)n1 as the compound, how does the activity change, negative = inhibition read?
Its activity change, negative = inhibition is 12% (inactive).

Which activity change, negative = inhibition does the source give for CC1=C(C(=O)OCc2ccc3c(c2)OCO3)C(c2ccc(F)cc2)NC(=O)N1 (stereo not given) here?
Its activity change, negative = inhibition is -13.4% (inactive).

For C=CCN1Cc2ccccc2[C@@H]2OC(c3ccc(OCCCO)cc3)=N[C@]2(CCC(=O)OC(C)(C)C)C1=O, which activity change, negative = inhibition is on record?
The activity change, negative = inhibition was 3.78% (inactive).

For CCn1c2ccccc2c2cc(/C=N/n3cnnc3)ccc21, which activity change, negative = inhibition is on record?
The activity change, negative = inhibition was 30.3% (inactive).

For C[C@H](CO)N1C[C@H](C)[C@@H](CN(C)CC2CCCCC2)OCCCC[C@H](C)Oc2ccc(NC(=O)Nc3cccc4ccccc34)cc2C1=O, which activity change, negative = inhibition is on record?
The activity change, negative = inhibition was 23.2% (inactive).

For C[C@@H]1CCCCO[C@@H](CN(C)Cc2ccccc2)[C@H](C)CN([C@H](C)CO)C(=O)c2cc(NC(=O)Nc3ccc4c(c3)OCO4)ccc2O1, which activity change, negative = inhibition is on record?
Its activity change, negative = inhibition is -6.74% (inactive).

Which activity change, negative = inhibition does the source give for c1ccc(-c2cn3c4c(sc3n2)CCCC4)cc1 here?
Its activity change, negative = inhibition is 6.83% (inactive).

Which activity change, negative = inhibition does the source give for C[C@@H]1CCCCO[C@H](CN(C)CC2CCCCC2)[C@H](C)CN([C@@H](C)CO)C(=O)c2cc(NC(=O)NC3CCCCC3)ccc2O1 here?
The activity change, negative = inhibition was -3.54% (inactive).

Which activity change, negative = inhibition does the source give for CCc1ccc(/C=C2\SC(=S)N(CCCC(=O)Nc3ccccn3)C2=O)cc1 here?
The activity change, negative = inhibition was 9.57% (inactive).

For C[C@@H]1CN([C@@H](C)CO)C(=O)c2cccc(NC(=O)Nc3cccc4ccccc34)c2O[C@H]1CN(C)C(=O)Nc1ccc(C(F)(F)F)cc1, which activity change, negative = inhibition is on record?
Its activity change, negative = inhibition is 26.9% (inactive).

For C[C@@H]1CN([C@@H](C)CO)C(=O)c2cc(NC(=O)Nc3ccc(C(F)(F)F)cc3)ccc2O[C@@H](C)CCCCO[C@H]1CN(C)Cc1ccc(C(F)(F)F)cc1, which activity change, negative = inhibition is on record?
The activity change, negative = inhibition was 24% (inactive).

Which activity change, negative = inhibition does the source give for O=c1[nH]c(Nc2nc3ccccc3o2)nc2c1CCCC2 here?
Its activity change, negative = inhibition is 2.84% (inactive).

For CSC(=S)N/N=C(\C)c1cccc(C)n1, which activity change, negative = inhibition is on record?
Its activity change, negative = inhibition is 8.74% (inactive).

For Cc1c(NC(=O)c2cccc(NC(=O)COc3ccccc3C#N)c2)c(=O)n(-c2ccccc2)n1C, which activity change, negative = inhibition is on record?
The activity change, negative = inhibition was 47.5% (inactive).

For C[C@@H]1CCCCO[C@H](CN(C)S(=O)(=O)c2ccccc2)[C@@H](C)CN([C@@H](C)CO)C(=O)c2cc(N(C)C)ccc2O1, which activity change, negative = inhibition is on record?
The activity change, negative = inhibition was -2.27% (inactive).

For CCc1ccc(/C=C/C(=O)C2C(=O)c3ccccc3C2=O)cc1, which activity change, negative = inhibition is on record?
Its activity change, negative = inhibition is 28.8% (inactive).

Which activity change, negative = inhibition does the source give for COc1ccc(-c2cc3nc4n(c(=O)c3s2)CCC4)cc1 here?
Its activity change, negative = inhibition is 20.7% (inactive).

For C/C(=N\NC(=S)Nc1cccc(C)c1)c1ccccn1, which activity change, negative = inhibition is on record?
The activity change, negative = inhibition was 74.3% (inactive).

For C[C@@H]1CCCCO[C@H](CN(C)C(=O)CCC(F)(F)F)[C@H](C)CN([C@@H](C)CO)C(=O)c2cc(NC(=O)CCC(F)(F)F)ccc2O1, which activity change, negative = inhibition is on record?
Its activity change, negative = inhibition is -12.3% (inactive).

For CC1CN(C(=O)CSc2nnc3c4ccccc4n(Cc4cccc(Cl)c4)c3n2)CCN1C(=O)c1ccccc1F (stereo not given), which activity change, negative = inhibition is on record?
Its activity change, negative = inhibition is 42.2% (inactive).

With C[C@@H]1CCCCO[C@H](CN(C)C(=O)c2ccccc2)[C@H](C)CN([C@@H](C)CO)C(=O)c2cc(NC(=O)Nc3ccc(F)cc3)ccc2O1 as the compound, how does the activity change, negative = inhibition read?
The activity change, negative = inhibition was -13.1% (inactive).

With C/C(=N\NC(=S)N1CC2CCC(CC2)C1)c1ccncn1 as the compound, how does the activity change, negative = inhibition read?
The activity change, negative = inhibition was -1.33% (inactive).

Test system: HEK293 LMP1 TES2 NF-kB luciferase reporter, 16 h
Experiment: as above
Conditions: not given

For Cc1ccc(NC(=O)C2CCN(S(=O)(=O)c3ccc4c(c3)NC(=O)C(C)S4)CC2)cc1Cl (stereo not given), which AC35 is on record?
The AC35 was 4.01 µM.

Which AC35 does the source give for COc1cccc(/C=N/Nc2ncnc3c2ncn3Cc2ccccc2)c1O here?
Its AC35 is 43.4 µM.

Which AC35 does the source give for C/C(=N\NC(=S)N1CCCCC1)c1cccc(C)n1 here?
Its AC35 is 0.492 µM.

For CCCSc1nnc2c3ccccc3n(Cc3ccccc3)c2n1, which AC35 is on record?
The AC35 was 3.4 µM.

With S=C(N/N=C(\c1ccccc1)c1ccccn1)N(Cc1ccccn1)Cc1ccccn1 as the compound, how does the AC35 read?
The AC35 was 6 µM.

With Nc1ccn([C@@H]2O[C@H](CO)[C@@H](O)C2O)c(=O)n1 (stereo not given in full) as the compound, how does the AC35 read?
The AC35 was 27.5 µM.

With C/C(=N\NC(=S)N1CCCC1)c1ccccn1 as the compound, how does the AC35 read?
The AC35 was 0.884 µM.

Which AC35 does the source give for O=C(CCc1ccccc1)NC(c1cccs1)c1cc(Cl)c2cccnc2c1O (stereo not given) here?
Its AC35 is 43.9 µM.

With C/C(=N\NC(=S)N1CC2CCC(CC2)C1)c1ccccn1 as the compound, how does the AC35 read?
Its AC35 is 5.42 µM.

Which AC35 does the source give for c1ccc(Cn2c3ccccc3c3nnc(SCCN4CCCCC4)nc32)cc1 here?
Its AC35 is 11 µM.

With CCc1sc(C(=O)Nc2ncccc2O)cc1C as the compound, how does the AC35 read?
The AC35 was 20.8 µM.

With C/C(=N\NC(=S)N1CCC1)c1ccccn1 as the compound, how does the AC35 read?
Its AC35 is 1.33 µM.

Which AC35 does the source give for C[C@H](CO)N1C[C@H](C)[C@@H](CN(C)CC2CC2)OCCCC[C@H](C)Oc2ccc(NC(=O)Nc3cccc4ccccc34)cc2C1=O here?
The AC35 was 0.541 µM.

With O=C(Nc1cc(C(F)(F)F)cc(C(F)(F)F)c1)Nc1cnn(-c2ccc([N+](=O)[O-])cc2)c1C(F)(F)F as the compound, how does the AC35 read?
The AC35 was 40.7 µM.

With C[C@H](CO)N1C[C@H](C)[C@H](CN(C)C(=O)Nc2ccc(C(F)(F)F)cc2)OCCCC[C@H](C)Oc2ccc(NC(=O)Nc3ccc(F)cc3)cc2C1=O as the compound, how does the AC35 read?
The AC35 was 16.6 µM.

With S=C(NCc1ccccn1)N/N=C/c1ccccn1 as the compound, how does the AC35 read?
The AC35 was 5.41 µM.

Which AC35 does the source give for CC12CCC3C(CC=C4CC(O)CCC43CO)C1CCC2OC(=O)c1ccccc1 (stereo not given) here?
The AC35 was 6.56 µM.

Which AC35 does the source give for C[C@H](CO)N1C[C@H](C)[C@@H](CN(C)Cc2ccc(-c3ccccc3)cc2)Oc2ccc(NC(=O)Nc3cccc4ccccc34)cc2CC1=O here?
Its AC35 is 4.13 µM.

For CCC(Sc1nnc2c3ccccc3n(Cc3ccc(Br)cc3)c2n1)C(=O)NCCCN1CCOCC1 (stereo not given), which AC35 is on record?
Its AC35 is 5.65 µM.

With C/C=C/C/C=C/CCC(=O)[C@H]1O[C@H]1C(N)=O as the compound, how does the AC35 read?
The AC35 was 13.2 µM.

Which AC35 does the source give for CC(C)=CCN(C(=O)C#Cc1ccccc1)[C@H](CO)c1ccccc1 here?
Its AC35 is 3.79 µM.

Which AC35 does the source give for C[C@@H]1CN([C@@H](C)CO)C(=O)c2cc(NC(=O)Nc3ccc4c(c3)OCO4)ccc2O[C@H]1CN(C)CC1CCCCC1 here?
Its AC35 is 0.738 µM.

With CCN1CCN(C(c2cccnc2)c2cc(Cl)c3cccnc3c2O)CC1 (stereo not given) as the compound, how does the AC35 read?
The AC35 was 7.4 µM.

Which AC35 does the source give for C/C(=N\NC(=S)N1CCN(c2ccccn2)CC1)c1ccccn1 here?
The AC35 was 10.5 µM.

For COc1ccc2[nH]c(C(=O)N/N=C/c3ccc(O)cc3O)cc2c1, which AC35 is on record?
The AC35 was 9.11 µM.

With Cc1ccc(S(=O)(=O)Nc2ccc3c(c2)C(=O)N([C@@H](C)CO)C[C@H](C)[C@@H](CN(C)C(=O)CCC(F)(F)F)OCCCC[C@H](C)O3)cc1 as the compound, how does the AC35 read?
The AC35 was 0.619 µM.

With O=C1/C(=C/c2ccncc2)SC(=S)N1Cc1ccccc1 as the compound, how does the AC35 read?
The AC35 was 29 µM.

For COc1ccccc1[C@]1(C)ON(c2ccccc2C(F)(F)F)C1=O, which AC35 is on record?
The AC35 was 7.88 µM.

With Fc1ccc2c(c1)c1nnc(SCCN3CCOCC3)nc1n2Cc1ccccc1 as the compound, how does the AC35 read?
The AC35 was 10.1 µM.

With COCCCNC(=O)C(C)Sc1nnc2c3cc(C)ccc3n(Cc3ccccc3F)c2n1 (stereo not given) as the compound, how does the AC35 read?
The AC35 was 25.8 µM.

For O=c1[nH]c(=O)n([C@H]2C[C@H](O)[C@@H](CO)O2)cc1C(F)(F)F, which AC35 is on record?
The AC35 was 8.74 µM.
